Molecules are shown by their SMILES. Entries after “also recorded” stand apart in the source; their conditions may differ.

Series [1] relates to GLUT4. The experiment in a line: GLUT4 on the surface of insulin-resistant adipocytes. The note with it: adipocytes made insulin resistant by insulin for 24 h, then insulin for 20 min with or without ST10. It counts as cell-based.
Another series relates to 3T3-L1 adipocytes. Briefly: Glucose uptake in 3T3-L1 adipocytes. The class given is cell-based. To be noted: various insulin concentrations, with or without ST10.
Series [2] relates to GLUT4. The experiment in a line: GLUT4 at the surface of 3T3-L1 adipocytes, with or without insulin. The class given is cell-based. The note with it: for effect on the effectiveness of insulin on GLUT4 translocation: 3T3-L1 adipocytes, 20 minutes, aminosteroid 50 μM, insulin 1 nM present or absent. The text has this:
One of the key components in the insulin-induced uptake of sugar by myocytes and adipocytes is the GLUT4 glucose (sugar) transporter. When insulin binds to its receptor at the surface of these cells, or during a muscle contraction, intracellular signalling pathways are activated, resulting in the translocation of GLUT4 from its intracellular storage compartment to the plasma membrane, where it enables sugar to enter from the extracellular medium. GLUT4 therefore plays an important role in carbohydrate homeostasis and, consequently, in T2D. 3T3-L1 adipocytes are stimulated for 20 minutes with the aminosteroids (50 μM), in the presence or absence of insulin (1 nM), and are labelled for GLUT4 at the surface of the cells. The percentage of GLUT4 at the surface of the cells is then determined.

The subject of series [3] is GLUT4. Briefly: Sensitivity of adipocytes to insulin (GLUT4 on the plasma membrane). The note with it: FIG. 3B. The class given is cell-based. As for the experimental part:
The effect of insulin and of ST10 on the amount of GLUT4 on the plasma membrane was measured (FIG. 3A) and the sensitivity of the cells to insulin was calculated (FIG. 3B).

On the set-up of series [4]: species or system mice. To be noted: mouse, in vivo. As for the experimental part:
Healthy mice were treated in the same way as previously. A dose of insulin was injected into these mice (at t=0). The blood glucose level of the mice was measured until 120 minutes after the insulin injection. […] The treatment with the ST20 derivative therefore prolongs the effect of insulin.

On to `CC(C)CCC[C@@H](C)[C@H]1CC[C@H]2[C@@H]3C[C@@H](NCCCNCCCCNCCCN)[C@H]4C[C@@H](O)CC[C@]4(C)[C@H]3CC[C@]12C` [ST10, 6β-(spermine)cholestan-3β-ol], for which the “effect of insulin on GLUT4 on the surface of insulin-resistant cells” value in the series on GLUT4 [1] is reported as “also increases the effect of the insulin”. Further, the “glucose uptake in adipocytes” value in the series with 3T3-L1 adipocytes is listed as “increases glucose uptake in the adipocytes; also recorded: increased by ST10 for all the insulin concentrations tested”. The “effect on the effectiveness of insulin on GLUT4 translocation” value in the series with GLUT4 [2] is “increases the effectiveness of insulin on GLUT4 translocation”. Further, the “increase in GLUT4 at the surface of the plasma membrane (PM), ST10 versus trodusquemine” value with GLUT4 [2] (FIG. 1C) is “greater in the presence of ST10 than in the presence of trodusquemine”. In the series on GLUT4 [3], the “sensitivity of the cells to insulin” value is “increases the sensitivity of the cells to insulin”.

With `CC(C)CCC[C@@H](C)[C@H]1CCC2C3C[C@@H](NCCCCNCCCN)C4=C[C@@H](O)CC[C@]4(C)C3CC[C@@]21C` (stereo partly drawn) [ST20, 6β-(spermidine)cholesten-3β-ol], the “severe hypoglycaemia in the ITT” value in series [4] is “did not cause severe hypoglycaemia”.

Take `CC(C)[C@@H](CC[C@@H](C)[C@H]1CC[C@H]2[C@@H]3[C@H](O)C[C@H]4C[C@@H](NCCCNCCCCNCCCN)CC[C@]4(C)[C@H]3CC[C@]12C)OS(=O)(=O)O` [trodusquemine, reference compound]: the “effect on the effectiveness of insulin on GLUT4 translocation” value in the series on GLUT4 [2] is recorded as “not”.

Source of the values: patent US20140249122A1, “ANTI-DIABETIC AMINOSTEROID DERIVATIVES” (UNIVERSITE NICE SOPHIA ANTIPOLIS, priority 2011, published 2014).
